The conditions of data set [1]: ref Todde et al., 2000; cited from earlier work.
The next data set addresses A1AR. The following applies: cited from earlier work.
For data set [2], the system named is mice. Put plainly: Telemetric monitoring of Tb and physical activity in mice. The format is in vivo, mouse.
Data set [3] addresses T1, mouse A1AR (Mus musculus, UniProt Q60612).
T1 sequence (Q60612 1-326): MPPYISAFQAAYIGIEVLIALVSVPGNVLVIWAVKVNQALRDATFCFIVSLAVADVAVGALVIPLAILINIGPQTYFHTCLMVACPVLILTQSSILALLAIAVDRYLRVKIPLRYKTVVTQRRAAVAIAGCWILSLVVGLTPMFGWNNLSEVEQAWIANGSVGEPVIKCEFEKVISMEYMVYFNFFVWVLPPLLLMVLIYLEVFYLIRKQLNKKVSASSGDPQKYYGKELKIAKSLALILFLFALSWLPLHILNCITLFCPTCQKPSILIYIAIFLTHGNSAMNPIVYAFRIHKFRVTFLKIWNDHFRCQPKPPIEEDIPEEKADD
Conditions: read-out: mouse Ki, A1AR; mouse; ref Carlin et al., 2017; cited from earlier work.

For data set [4], the target named is M3 acetylcholine receptor (Homo sapiens, UniProt P20309). Put plainly: PDSP off-target radioligand binding, M3 acetylcholine receptor.
A further data set addresses human 5HT2B receptor (Homo sapiens, UniProt P41595). Put plainly: PDSP off-target radioligand binding, 5HT2B receptor.
In data set [5] the target is serotonin transporter (SERT) (Homo sapiens, UniProt P31645). Put plainly: PDSP off-target radioligand binding, serotonin transporter.
The target of data set [6] is A2BAR. The following applies: read-out: Ki, A2BAR (h), human, cited from earlier work.
For data set [7], the target named is T2, mouse A3AR (Mus musculus, UniProt Q61618).
T2 sequence (Q61618 1-319): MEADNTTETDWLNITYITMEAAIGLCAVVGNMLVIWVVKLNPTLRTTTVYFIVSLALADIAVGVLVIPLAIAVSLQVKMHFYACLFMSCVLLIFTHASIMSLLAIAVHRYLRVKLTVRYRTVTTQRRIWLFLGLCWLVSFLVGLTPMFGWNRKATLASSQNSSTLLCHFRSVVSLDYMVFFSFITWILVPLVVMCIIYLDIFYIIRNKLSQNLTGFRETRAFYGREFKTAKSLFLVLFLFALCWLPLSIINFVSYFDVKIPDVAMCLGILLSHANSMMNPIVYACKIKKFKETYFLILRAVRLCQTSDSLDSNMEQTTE
The following applies: read-out: mouse Ki, A3AR, ref Carlin et al., 2017; cited from earlier work.

In data set [8] the target is T1, mouse A1AR. The data set can be described thus: Radioligand binding, mouse A1AR. The following applies: for A1AR rat: mouse ratio: ratio of rat Ki to mouse Ki at A1AR; for Ki: read-out: mouse Ki, A1AR, mouse, current results, ± SEM.
For data set [9], the target named is T3, mouse A2AAR (Mus musculus, UniProt Q60613). Conditions: read-out: mouse Ki, A2AAR, ref Alnouri et al., 2015; cited from earlier work.
Data set [10] has as its system mouse A2BAR. Put plainly: Cell-based assay at mouse A2BAR. The following applies: EC50 2.8 nM vs Ki 136 nM.
In data set [11] the test system is mouse A2BAR. The following applies: ref van der Hoeven et al., 2011, cited from earlier work.
Data set [12] has as its system mice. Put plainly: Indirect calorimetry. Conditions: BAY60-6583 1 mg/kg, i.p.; C57BL/6J mice.
Data set [13] concerns hypothalamic neurons (Fos). Put plainly: Drug-induced neuronal activation. The format is in vivo, mouse. The following applies: BAY60-6583 0.004 mg/kg i.c.v.; Adora1−/−;Adora3−/− mice; 1 h; vs vehicle.
In data set [14] the target is T3, mouse A2AAR. Put plainly: Radioligand binding, mouse A2AAR. The following applies: read-out: mouse Ki, A2AAR; mouse; current results, ± SEM.
The target in data set [15] is T2, mouse A3AR. Put plainly: Radioligand binding, mouse A3AR. Conditions: mouse, current results, ± SEM.
In data set [16] the test system is A2BAR. The following applies: rat; ref Hide et al., 1992; cited from earlier work.
For the next data set, the system named is brown adipose tissue. Conditions: by stimulation of brown adipose tissue; ref Gnad et al., 2014; cited from earlier work.
For data set [17], the target named is human β3 adrenergic receptor (Homo sapiens, UniProt P13945). Conditions: read-out: Ki, human β3 adrenergic receptor; PDSP screen.
For data set [18], the target named is human β1 adrenergic receptor (Homo sapiens, UniProt P08588). Conditions: read-out: Ki, human β1 adrenergic receptor; PDSP screen.
Setting [19] is: SCH442416 3 mg/kg, i.p., alone, data not shown.
Where [20] appears, read: BAY60-6583 0.5–2 mg/kg, i.p., C57BL/6J mice.
[21] abbreviates: PSB-0777 ≤3 mg/kg, i.p., wild type mice.

As a reminder, the Ki is a measure of affinity in units of concentration, obtained from inhibition or displacement. The term EC50 denotes the concentration that produces a half-maximal response.

Where two headings read alike, the source gives them in different places. Marks after values point to notes of the source that are not given here. Where only a bound is given, the exact number is not on record here.

T3 sequence (Q60613 whole entry): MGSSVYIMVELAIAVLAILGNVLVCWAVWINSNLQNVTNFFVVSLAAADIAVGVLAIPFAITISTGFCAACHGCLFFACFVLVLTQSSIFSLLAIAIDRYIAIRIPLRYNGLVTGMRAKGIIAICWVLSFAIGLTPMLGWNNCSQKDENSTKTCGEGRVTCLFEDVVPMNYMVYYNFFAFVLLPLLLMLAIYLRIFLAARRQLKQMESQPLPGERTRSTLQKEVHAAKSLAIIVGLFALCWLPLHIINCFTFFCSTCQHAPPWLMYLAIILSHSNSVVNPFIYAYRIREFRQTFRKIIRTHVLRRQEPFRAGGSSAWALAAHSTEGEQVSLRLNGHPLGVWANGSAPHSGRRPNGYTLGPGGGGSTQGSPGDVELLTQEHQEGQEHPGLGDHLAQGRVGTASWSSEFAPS
Sequence of serotonin transporter (SERT) (P31645 whole entry): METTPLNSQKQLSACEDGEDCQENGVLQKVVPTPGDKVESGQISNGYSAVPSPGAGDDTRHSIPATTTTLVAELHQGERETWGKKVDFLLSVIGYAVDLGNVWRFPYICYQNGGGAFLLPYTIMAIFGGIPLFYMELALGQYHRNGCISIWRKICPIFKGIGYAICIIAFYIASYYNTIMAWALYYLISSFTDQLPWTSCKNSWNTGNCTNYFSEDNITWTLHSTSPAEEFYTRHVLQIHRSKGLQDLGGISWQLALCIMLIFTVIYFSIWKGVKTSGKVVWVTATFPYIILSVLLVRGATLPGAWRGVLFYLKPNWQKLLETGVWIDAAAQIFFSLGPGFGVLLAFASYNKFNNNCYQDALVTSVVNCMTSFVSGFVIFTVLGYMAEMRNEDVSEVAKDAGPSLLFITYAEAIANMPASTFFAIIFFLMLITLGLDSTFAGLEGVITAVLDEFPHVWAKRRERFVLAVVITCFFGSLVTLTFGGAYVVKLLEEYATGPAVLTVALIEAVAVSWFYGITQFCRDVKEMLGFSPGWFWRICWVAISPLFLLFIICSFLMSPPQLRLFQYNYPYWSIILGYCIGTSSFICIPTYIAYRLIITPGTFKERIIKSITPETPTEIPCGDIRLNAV
Sequence of M3 acetylcholine receptor (P20309 whole entry): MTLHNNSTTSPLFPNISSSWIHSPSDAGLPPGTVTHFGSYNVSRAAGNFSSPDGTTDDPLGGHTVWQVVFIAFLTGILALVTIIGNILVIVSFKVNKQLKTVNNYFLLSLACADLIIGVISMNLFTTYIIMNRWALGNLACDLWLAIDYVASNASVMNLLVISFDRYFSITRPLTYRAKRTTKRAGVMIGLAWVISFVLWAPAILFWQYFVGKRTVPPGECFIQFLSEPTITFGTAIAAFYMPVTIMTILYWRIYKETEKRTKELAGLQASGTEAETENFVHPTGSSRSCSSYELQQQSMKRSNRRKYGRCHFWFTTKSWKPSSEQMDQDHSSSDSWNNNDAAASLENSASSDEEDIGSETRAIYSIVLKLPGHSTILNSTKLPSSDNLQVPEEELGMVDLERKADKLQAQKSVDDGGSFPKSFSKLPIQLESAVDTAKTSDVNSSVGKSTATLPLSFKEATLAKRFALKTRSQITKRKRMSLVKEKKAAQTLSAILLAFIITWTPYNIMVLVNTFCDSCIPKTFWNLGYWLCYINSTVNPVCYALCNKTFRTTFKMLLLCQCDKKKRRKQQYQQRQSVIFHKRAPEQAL
Sequence of human β3 adrenergic receptor (P13945 whole entry): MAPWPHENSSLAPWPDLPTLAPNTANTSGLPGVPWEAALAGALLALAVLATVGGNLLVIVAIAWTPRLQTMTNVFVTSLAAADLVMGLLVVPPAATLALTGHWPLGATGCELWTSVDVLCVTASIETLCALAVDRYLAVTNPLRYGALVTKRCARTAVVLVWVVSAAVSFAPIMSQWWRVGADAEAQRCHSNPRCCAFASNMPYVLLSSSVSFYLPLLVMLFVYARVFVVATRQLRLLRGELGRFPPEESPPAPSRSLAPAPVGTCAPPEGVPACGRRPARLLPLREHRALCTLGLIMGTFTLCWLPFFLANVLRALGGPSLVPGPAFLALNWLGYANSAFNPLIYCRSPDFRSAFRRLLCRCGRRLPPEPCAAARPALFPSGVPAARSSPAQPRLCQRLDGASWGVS
Sequence of human β1 adrenergic receptor (P08588 whole entry): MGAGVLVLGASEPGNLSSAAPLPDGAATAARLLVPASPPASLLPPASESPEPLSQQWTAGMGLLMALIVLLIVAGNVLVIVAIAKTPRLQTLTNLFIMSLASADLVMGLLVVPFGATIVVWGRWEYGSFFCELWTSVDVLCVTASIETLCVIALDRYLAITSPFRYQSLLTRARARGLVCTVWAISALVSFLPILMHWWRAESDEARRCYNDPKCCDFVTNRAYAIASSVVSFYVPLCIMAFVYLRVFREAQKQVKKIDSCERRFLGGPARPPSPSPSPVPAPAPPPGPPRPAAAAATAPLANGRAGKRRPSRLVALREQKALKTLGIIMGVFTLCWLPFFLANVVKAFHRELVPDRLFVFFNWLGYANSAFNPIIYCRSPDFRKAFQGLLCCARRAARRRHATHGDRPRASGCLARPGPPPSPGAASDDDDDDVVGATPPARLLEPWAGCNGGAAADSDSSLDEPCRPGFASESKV
Sequence of human 5HT2B receptor (P41595 whole entry): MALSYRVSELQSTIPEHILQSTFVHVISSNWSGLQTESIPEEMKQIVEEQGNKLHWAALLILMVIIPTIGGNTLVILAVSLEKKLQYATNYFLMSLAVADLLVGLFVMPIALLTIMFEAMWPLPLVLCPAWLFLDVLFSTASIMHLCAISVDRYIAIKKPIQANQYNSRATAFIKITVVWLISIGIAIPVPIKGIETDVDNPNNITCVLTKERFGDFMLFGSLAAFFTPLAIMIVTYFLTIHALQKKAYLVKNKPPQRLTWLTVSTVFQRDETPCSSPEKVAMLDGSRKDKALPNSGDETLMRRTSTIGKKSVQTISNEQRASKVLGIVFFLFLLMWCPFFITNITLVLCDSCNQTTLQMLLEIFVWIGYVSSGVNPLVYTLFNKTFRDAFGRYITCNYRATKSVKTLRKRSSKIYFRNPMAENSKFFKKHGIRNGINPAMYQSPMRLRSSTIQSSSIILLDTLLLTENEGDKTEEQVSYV

Turning to `COc1ccc(CCCn2ncc3c2nc(N)n2nc(-c4ccco4)nc32)cc1` [SCH442416, 2-(2-furyl)-7-[3-(4-methoxyphenyl)propyl]-7H-pyrazolo[4,3-e][1,2,4]triazolo[1,5-c]pyrimidin-5-amine], the brain penetrant result in [1] is “yes ^j”. Moreover, the inhibitory constant (Ki) at A1AR (read-out: rat Ki, A1AR, ref Todde et al., 2000) is 1820 nM; at mouse A1AR [3] it was 765 nM; in data set [4], 6800 nM; on human 5HT2B receptor, 910 nM; in [5], 6100 nM; on A2BAR [6] (ref Todde et al., 2000) it was greater than 10000 nM. Further, the Ki on mouse A3AR [7] was greater than 10000 nM. For the same molecule, the “block of PSB-0777-induced hypothermia” value in the data set with mice [2] (SCH442416 0.6 mg/kg, i.p. at -15 min, then PSB-0777 1 mg/kg i.p.) is recorded as “largely blocked”. The physical activity entry in the data set with mice [2] (SCH442416 0.6 mg/kg, i.p., by itself, p=0.078) is reported as “trended to increase activity”. In addition, the Tb entry is on record as “trended to increase” with mice [2] (SCH442416 0.6 mg/kg, i.p., by itself, p=0.10) and “increase in Tb” in the data set with mice [2] (setting [19]). Also, in the data set with mice [2] (setting [19]), the locomotor activity result is “increased locomotor activity”.
For the molecule `N#Cc1c(N)nc(SCC(N)=O)c(C#N)c1-c1ccc(OCC2CC2)cc1` [BAY60-6583, 2-[6-amino-3,5-dicyano-4-[4-(cyclopropylmethoxy)phenyl]pyridin-2-ylsulfanyl]acetamide], the “A1AR rat: mouse ratio” value at mouse A1AR [8] is reported as 1.5. The Ki on A1AR (read-out: rat Ki, A1AR, ref Alnouri et al., 2015) was 514 nM; on mouse A2AAR [9] it was greater than 10000 nM; in data set [5], 5600 nM. Besides, the “EC50 better than the binding affinity at A2BAR” value with mouse A2BAR [10] was 50 fold. Further, the “Tb response (hypothermia)” value in the data set with mice [2] (BAY60-6583 0.004 mg/kg i.c.v., Adora1−/−;Adora3−/− mice) is on record as “more modest effects”; in the data set with mice [2] (BAY60-6583 0.004 mg/kg, i.c.v., C57BL/6J (WT) mice), “caused hypothermia”; with mice [2] (BAY60-6583 0.04 mg/kg i.c.v., Adora1−/−;Adora3−/− mice), “profound, prolonged hypothermia”; with mice [2] (BAY60-6583 1 mg/kg, i.p., Adora2b−/− mice, 1 mg/kg), “completely abolished”; with mice [2] (BAY60-6583 1 mg/kg, i.p., KitW−sh/W−sh mice), “intact”; with mice [2] (setting [20]), “dose-dependent hypothermia”. Also, in the data set on mice [2] (BAY60-6583 i.p., Adora1−/−;Adora3−/− mice, not shown), the “Tb response (hypothermia)” value was “intact”. Moreover, the physical activity result in the data set on mice [2] (setting [20]) is on record as “hypoactivity”. Also, the “i.c.v. dose as fraction of a similarly hypothermic i.p. dose” value in the data set on mice [2] (BAY60-6583, i.c.v. vs i.p.) is 1/150. Moreover, in the data set with mouse A2BAR [11] (not mouse A1AR, A2AAR, or A3AR), the “adenosine receptor activation selectivity” value is listed as “activate only mouse A2BAR”. In the data set with mouse A2BAR [11] (read-out: EC50 at mouse A2BAR, cell-based assay), the EC50 is 2.8 nM. In the data set on mice [12], the food intake result is listed as “lowered”. Moreover, in the data set on mice [12], the “metabolic rate (total energy expenditure)” value is on record as “lowered metabolic rate”. Moreover, in the data set on mice [12], the respiratory exchange ratio entry is “lowered”. Further, the “Fos immunoreactivity, dorsomedial hypothalamus (DMH)” value in data set [13] is “not significantly different”. Besides, the “Fos immunoreactivity, ventromedial hypothalamus (VMH)” value in [13] is on record as “not significantly different”. Besides, the “Fos immunostaining, paraventricular hypothalamus (PVH)” value in [13] is “increased Fos immunostaining”. For the same molecule, in [13], the “Fos immunostaining, preoptic area (POA)” value is “increased Fos immunostaining”.
On to `CCNC(=O)[C@H]1O[C@@H](n2cnc3c(N)nc(NCCc4ccc(CCC(=O)NCCN)cc4)nc32)[C@H](O)[C@@H]1O` [APEC, 2-[[2-[4-[2-(2-aminoethyl)-aminocarbonyl]ethyl]phenyl]ethylamino]-5′-N-ethyl-carboxamidoadenosine], for which, on mouse A1AR [8] (mouse vs rat A1AR), the “binding to mouse A1AR better than rat A1AR” value was ~ 100 fold. Moreover, at mouse A1AR [8], the “A1AR rat: mouse ratio” value was found to be 95. Also, the inhibitory constant (Ki) on mouse A1AR [8] was 4.17 ± 0.15 nM; at A1AR (read-out: rat Ki, A1AR, ref Kim et al., 1994), 400 nM; at mouse A2AAR [14], 3.57 ± 0.22 nM; on mouse A3AR [15] (read-out: mouse Ki, A3AR) it was 55.1 ± 4.3 nM. In the data set on mice [2] (APEC 1.7 μg/kg i.p.), the Tb response result was “blunting the handling hyperthermia”. The “Tb response (hypothermia)” value was “robust hypothermia” in the data set with mice [2] (APEC 50 μg/kg i.p.); “attenuated” in the data set with mice [2] (APEC i.p., Adora1−/−;Adora3−/− mice); “attenuated” with mice [2] (APEC i.p., Adora2a−/− mice); “fully intact” in the data set on mice [2] (APEC i.p., Adora2b−/− mice). The physical activity result in the data set on mice [2] (APEC 50 μg/kg i.p.) was “hypoactivity”. Besides, the “A2BAR (r) activity” value with A2BAR [16] is “inactive (r) ^h”.
With `N.Nc1nc(SCCc2ccc(S(=O)(=O)O)cc2)nc2c1ncn2[C@@H]1O[C@H](CO)[C@@H](O)[C@H]1O` [PSB-0777, 4-[2-[(6-Amino-9-b-D-ribofuranosyl-9H-purin-2-yl)thio]ethyl]benzenesulfonic acid ammonium salt], the “A1AR rat: mouse ratio” value on mouse A1AR [8] is listed as greater than 500. Moreover, the Ki on mouse A1AR [8] was 18.4 ± 1.1 nM; at A1AR (read-out: rat Ki, A1AR, ref El-Tayeb et al., 2011), no less than 10000 nM; at mouse A2AAR [14], 193 ± 28 nM; in data set [17], 3300 nM; on A2BAR [6] (ref El-Tayeb et al., 2011) it was greater than 10000 nM; in data set [18], 4400 nM. Further, the “Tb response (hypothermia)” value is recorded as “abolished” in the data set with mice [2] (PSB-0777 i.p., Adora2a−/− mice) and “dose-dependent hypothermia” in the data set on mice [2] (setting [21]). In addition, the physical activity result in the data set with mice [2] (setting [21]) is listed as “hypoactivity”. For the same molecule, the energy expenditure entry with brown adipose tissue is “increased energy expenditure”. For the same molecule, the “% inhibition at 10 μM, mouse A3AR” value at mouse A3AR [15] (10 μM) came to 26 ± 1% ^e.

Source of the values: article PMC6067974 (Neuropharmacology, 2018).
